# Results from a melting point compilation (Tetko et al.; mined from patent text by program, amines drawn as free bases though some values may be those of a salt).
row,melting point [°C],SMILES
1,227 to 228,CC1OC(n2c(Cl)c(C#N)c3cc(Cl)c(Cl)cc32)C(O)C1O (centres undefined)
2,151 to 153,Clc1ccc([C@@H]2CNc3ccccc3S2)cc1
3,60 to 65,Cn1cncc1-c1cccc(Nc2ccc3ccccc3n2)c1
4,161 to 163,CC1(C)CC(=O)Nc2cc(N)ccc21
5,92.5,FC(F)c1cccc(C=C2c3ccccc3CCc3ccccc32)c1
6,148 to 151,CCOC(=O)C(=O)Nc1c([N+](=O)[O-])sc2c(F)cccc12
7,> 300,CCn1cc(C(N)=O)c(=O)c2ccc(-c3ccncc3)cc21
8,73 to 74,C=C(c1ccc(F)cc1)c1ccccc1Cl
9,167,COc1cccc(C(=O)Nc2nc(C(=O)c3ccc([N+](=O)[O-])c(OC)c3)n3ccccc23)c1
10,239 to 241,Cc1ccn2c(C)c(-c3ccc4c(c3)NC(=O)CO4)nc2c1
11,158 to 161,COC(=O)c1ccc(NCc2ccc(Cl)c(Cl)c2)cn1
12,103 to 104,CC(C)OP(=O)(OC(C)C)C(=CC=Cc1ccccc1)P(=O)(OC(C)C)OC(C)C
13,92 to 95,CCCCCC(OC(C)=O)c1ccccc1COc1cccc2ccc(=O)[nH]c12 (centres undefined)
14,> 300,COC[C@H]1CCCN1NC(=O)Nc1cccc2c1C(=O)c1c-2n[nH]c1-c1ccc(C(=O)N2CCNCC2)s1
15,253 to 254,CCc1c2nc(-c3cc(S(C)(=O)=O)ccc3OCC(C)C)[nH]c(=O)c2nn1Cc1nccn1C
16,160 to 163,CC1(C)C(=O)N(c2ccnc(NC(=O)NCc3ccccn3)c2)c2cccnc21
17,123 to 125,COc1ccc(N2CCN(C(=O)CC3C=Cc4ccccc43)CC2)cc1 (centres undefined)
18,178 to 179,COc1ccc(C(=O)NC2CCCCC2)c2c1OCC2C(=O)OCc1ccccc1 (centres undefined)
19,91 to 93,CC1(C)CN(CCO)C(=O)C(C)(C)N1

row,melting point [°C],SMILES
1,> 250,O=c1ccc(-c2ccc(-c3ccc(=O)[nH]n3)cc2)n[nH]1
2,135,O=C(O)c1cc(Cn2cc(C3c4ccccc4C=Cc4ccccc43)c(=S)[nH]c2=O)ccc1Cc1ccccc1
3,109 to 110,CCc1cc(C(=O)c2ccccc2Cl)c(-n2c(C)nnc2CCl)s1
4,121 to 125,NS(=O)(=O)c1cc2c(cc1Cl)C(=O)NC2=O
5,96.3 to 98.3,NC(=O)Nc1ccc(O)cc1
6,55 to 63,CN1CCN(c2cc(Cl)cc3c2c(=O)n(CCCc2ccccc2)c(=O)n3Cc2ccccc2)CC1
7,231,CC1(C)Oc2ccc([N+](=O)[O-])cc2C(n2ccccc2=O)=C1CN
8,179 to 180,CCCc1nc2ccccc2n1Cc1ccc(C2CCCC2C(=O)O)cc1 (centres undefined)
9,180 to 183,Cc1nc2cnc(N3CCN(CCCC(=O)c4ccc(F)cc4)CC3)cc2[nH]1
10,214 to 215,O=[N+]([O-])c1cc(-c2nc3ccccc3s2)ccc1O
11,113 to 115,CSC(C(=O)c1cc(-c2ccccc2)on1)N1CCCCC1 (centres undefined)
12,90 to 92,CCOC(=O)Nn1cccc1C(=O)c1ccccc1Cl
13,211 to 213,NC(=O)CNC(=O)c1cc(Cl)nc(Cl)c1
14,139,Nc1cccc(S(=O)(=O)NCc2ccncc2)c1
15,148 to 151,CCOC(=O)c1cn(C2CC2)c2c(F)c(N3CC[C@H](NC(=O)OC(C)(C)C)C3)c(F)cc2c1=O
16,> 120,NS(=O)c1ncnc2c1ncn2C1OC(CO)C(O)C1O (centres undefined)
17,175 to 177,C=CCOC(=O)c1ccc(OC(=O)c2ccc(O)c(C34CC5CC(CC(C5)C3)C4)c2)cc1
18,57 to 58,CCCc1c(C=O)ncn1S(=O)(=O)N(C)C
19,123 to 125,COc1ccc(N)cc1CNC(C)=O

row,SMILES,melting point [°C]
1,FC(F)(F)c1ccccc1NC(=S)N1CCc2c(sc3c2C(c2ccccc2Cl)=NCc2nnc(Cc4ccccc4)n2-3)C1,239 to 240
